Laboratory results reported in patent US20240148821A1, “PHARMACEUTICAL USE OF CYCLIC PEPTIDE COMPOUND” (CHUGAI SEIYAKU KABUSHIKI KAISHA, priority 2021, published 2024).
pIC50: −log10 of the molar value. Values belong to the compound of their own block, whether it stands above or below them. Bridge positions count the residues as written; N and C are the ends. Square brackets hold non-standard residues; d marks the D form. Peptide text beside a SMILES is read from it. * marks the point of attachment. hPhe(3,5-F2-4-CF3) = N[C@@H](CCc1cc(F)c(C(F)(F)F)c(F)c1)C(=O)O; hPhe(3-Cl-4-CF3) = N[C@@H](CCc1ccc(C(F)(F)F)c(Cl)c1)C(=O)O; hPhe(3-F,4-CF3) = N[C@@H](CCc1ccc(C(F)(F)F)c(F)c1)C(=O)O; NMePhe(4-Me) = CN[C@@H](Cc1ccc(C)cc1)C(=O)O; NMeGly(cPent) = CN[C@H](C(=O)O)C1CCCC1; NMeCha = CN[C@@H](CC1CCCCC1)C(=O)O; Hyp = O=C(O)[C@@H]1C[C@@H](O)CN1; NMeI = CC[C@H](C)[C@H](NC)C(=O)O; NMeD = CN[C@@H](CC(=O)O)C(=O)O; NMeL = CN[C@@H](CC(C)C)C(=O)O; NMeC = CN[C@@H](CS)C(=O)O; NMeS = CN[C@@H](CO)C(=O)O; Morpholide = C1CN(*)CCO1; NMeA = CN[C@@H](C)C(=O)O; Ac5c = NC1(C(=O)O)CCCC1; Aze = O=C(O)[C@@H]1CCN1; Sar = CNCC(=O)O; Propyl = CCC*

Experiments:
[1] = test system: Human pancreatic cancer cell line AsPC-1 (G12D mutation Kras); test: AsPC-1 cell growth inhibition (AsPC-1 CGI); assay type: cell-based; conditions: read-out: AsPC-1 cell growth inhibition, 50% growth inhibitory concentration (IC50 value); 96 hours, CellTiter-Glo, values classified in ranges
Procedure: Test compounds were serially dilated with dimethyl sulfoxide, and 200 nL was then dispensed to a U-bottom 96-well plate using Labcyte Echo. […] The cell suspension was dispensed to a. plate containing a test compound at 100 μL per well and incubated at 37° C. in a 5% carbon dioxide gas incubator. 96 hours later, 80 μL of CellTiter-Glo (Promega) was added to each well and fluorescence was measured.

[2] = target: protein-protein interaction between Kras and SOS1 (biotin-tagged human Kras loaded with GDP, His-tagged human SOS1) (Homo sapiens (Human), UniProt P01116, G12D); test: Protein-protein interaction inhibition between Kras and SOS1 (KrasG12D-SOS PPI) using AlphaScreen; assay type: biochemical; conditions: AlphaScreen; biotin-tagged human Kras loaded with GDP, His-tagged human SOS1; read-out: KRAS G12D-SOS PPI IC50;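 further: kras produced in E. coli, Ni-coupled donor beads and streptavidin acceptor beads, excitation 680 nm with emission detected at 520–620 nm via singlet oxygen transfer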
[3] = test system: various cancer cell lines (Ras mutation or amplification); test: Measurement of cell growth inhibitory activity against various cancer cell lines (CellTiter-Glo); assay type: cell-based, human
Procedure: Various cancer cell lines used were purchased from commercial suppliers. […] The cell suspension and culture medium supplemented with serum were dispensed to a plate containing the test compounds at 40 μL (384 well plate) or 200 μL (96 well plate) per well and incubated in a carbon dioxide gas incubator. […] Six days or seven days after the start of cultivation, 20 μL of CellTiter-Glo (Promega) was added to each well and fluorescence was measured.

[4] = test system: large bowel carcinoma cell line LS 180; test: In vivo antitumor activity, mouse xenograft model, LS 180; conditions: LS 180 (Colon) xenograft, 7 days
Text: (§1) Tumor growth inhibition rate (TGI %)=(1−TV/CV)×100

[5] = test system: non-small cell lung cancer cell line NC1-1441 with a KRAS mutation; test: In vivo antitumor activity, mouse xenograft model, NCI-H441; conditions: NCI-H441 (NSCLC) xenograft, 14 days
Text: as §1

[6] = A4/Fuk, Non-Hodgkin lymphoma, KRAS Amp
[7] = MIA PaCa-2, Pancreas, KRAS G12C

- pIC50 [1]: ≥ 7.70
- pIC50 [2]: 9.00
- pIC50 [3, 6]: 8.89
- pIC50 ([3]; A549, NSCLC, KRAS G12S): 8.96
- pIC50 ([3]; AGS, Stomach, KRAS G12D): 8.84
- pIC50 ([3]; AsPC-1, Pancreas, KRAS G12D): 8.48
- pIC50 ([3]; KURAMOCHI, Ovary, KRAS Amp): 8.10
- pIC50 ([3]; LS 180, Colon, KRAS G12D): 8.27
- pIC50 [3, 7]: 8.05
- pIC50 ([3]; NCI-H441, NSCLC, KRAS G12V): 8.54
- pIC50 ([3]; NCI-H929, Myeloma, NRAS G13D): 7.73
- pIC50 ([3]; NOMO-1, AML, KRAS G13D): 7.54
- pIC50 ([3]; SNU-1, Stomach, KRAS G12D): 8.56
- pIC50 ([3]; SW480, Colon, KRAS G12V): 7.25
Structure (SMILES): CC[C@H](C)[C@@H]1NC(=O)[C@H](CC(C)C)N(C)C(=O)C[C@@H](C(=O)N2CCOCC2)N(C)C(=O)[C@H](C2CCCC2)N(C)C(=O)C2(CCCC2)NC(=O)[C@@H]2CCCN2C(=O)[C@H](CCc2ccc(C(F)(F)F)c(Cl)c2)NC(=O)CN(C)C(=O)[C@H](CC2CCCCC2)N(C)C(=O)[C@@H]2CCN2C(=O)[C@H](C)N(C)C1=O [Compound 926, (5S,8S,11S,15S,18S,23aS,29S,35S,37aS)-8-((S)-sec-butyl)-29-(3-chloro-4-(trifluoromethyl)phenethyl)-35-(cyclohexylmethyl)-18-cyclopentyl-11-isobutyl-5,6,12,16,19,33,36-heptamethyl-15-(morpholine-4-carbonyl)docosahydro-2H,4H-spiro[azeto[2,1-u]pyrrolo[2,1-i][1,4,7,10,13,16,19,22,25,28,31]undecaazacyclotetratriacontine-21,1′-cyclopentan]-4,7,10,13,17,20,23,28,31,34,37(14H,22H)-undecaone] ([NMeL]I[NMeA][Aze][NMeCha][Sar][hPhe(3-Cl-4-CF3)]P[Ac5c][NMeGly(cPent)][NMeD]-Morpholide; lactam N-11)
- TGI (%) ([4]; 15 mg/kg once daily): 29%
- TGI (%) ([4]; 30 mg/kg once daily): 75%

- pIC50 [1]: ≥ 7.70
- pIC50 [3, 6]: 9.19
- pIC50 ([3]; A549, NSCLC, KRAS G12S): 9.60
- pIC50 ([3]; AGS, Stomach, KRAS G12D): 9.32
- pIC50 ([3]; AsPC-1, Pancreas, KRAS G12D): 9.08
- pIC50 ([3]; HEC-151, Endometrium, NRAS G12D): 8.64
- pIC50 ([3]; KURAMOCHI, Ovary, KRAS Amp): 8.58
- pIC50 ([3]; LS 180, Colon, KRAS G12D): 8.88
- pIC50 [3, 7]: 8.74
- pIC50 ([3]; NCI-H441, NSCLC, KRAS G12V): 9.05
- pIC50 ([3]; NCI-H929, Myeloma, NRAS G13D): 8.34
- pIC50 ([3]; NOMO-1, AML, KRAS G13D): 8.31
- pIC50 ([3]; PA-1, Ovary, NRAS G12D): 8.94
- pIC50 ([3]; SW480, Colon, KRAS G12V): 8.02
Structure (SMILES): CCO[C@@H]1C[C@H]2C(=O)NC3(CCCC3)C(=O)N(C)[C@@H](C3CCCC3)C(=O)N(C)[C@H](C(=O)N(C)C)CC(=O)N(C)[C@@H](CC(C)C)C(=O)N[C@@H]([C@@H](C)CC)C(=O)N(C)[C@@H](C)C(=O)N3CC[C@H]3C(=O)N(C)[C@@H](CC3CCCCC3)C(=O)N(C)CC(=O)N[C@@H](CCc3cc(F)c(C(F)(F)F)c(F)c3)C(=O)N2C1 [Compound 1201, (5S,8S,11S,1S,18S,23aS,25R,29S,35S,37aS)-8-((S)-sec-butyl)-35-(cyclohexymethyl)-18-cyclopentyl-29-(3,5-difluoro-4-(trifluoromethyl)phenethyl)-25-ethoxy-11-isobutyl-N,N,5,6,12,16,19,33,36-nonamethyl-4,7,10,13,17,20,23,28,31,34,37-undecaoxotetratriacontahydro-2H,4H-spiro[azeto[2,1-u]pyrrolo[2,1-i][1,4,7,10,13,16,19,22,25,28,31]undecaazacyclotetratriacontine-21,1′-cyclopentane]-15-carboxamide] ([NMeL]I[NMeA][Aze][NMeCha][Sar][hPhe(3,5-F2-4-CF3)][Hyp](Et)[Ac5c][NMeGly(cPent)][NMeD]-NMe2; lactam N-11 (inferred); C-terminus assumed)
- TGI (%) ([5]; 3 mg/kg once daily): 68%
- TGI (%) ([5]; 6 mg/kg once daily): 92%
- TGI (%) ([5]; 10 mg/kg once daily): 104%

- pIC50 [1]: < 6.30
- pIC50 [2]: 8.22
Structure (SMILES): CC[C@H](C)[C@@H]1NC(=O)CSC[C@@H](C(=O)N(C)C)N(C)C(=O)[C@H]([C@@H](C)CC)N(C)C(=O)C2(CCCC2)NC(=O)[C@@H]2CCCN2C(=O)[C@H](CCc2ccc(C(F)(F)F)c(Cl)c2)NC(=O)CN(C)C(=O)[C@H](Cc2ccc(C)cc2)N(C)C(=O)CN(C)C(=O)CN(C)C1=O [Compound 2173, (3S,9S,18S,24R,27S,33S)-18,27-bis[(2S)-butan-2-yl]-3-[2-[3-chloro-4-(trifluoromethyl)phenyl]ethyl]—N,N,7,10,13,16,25,28-octamethyl-9-[(4-methylphenyl)methyl]-2,5,8,11,14,17,20,26.,29,32-decaoxospiro[22-thia-1,4,7,10,13,16,19,25,28,31-decazabicyclo[31.3.0]hexatriacontane-30,1-cyclopentane]-24-carboxamide] ({CH2CO}-I[Sar][Sar][NMePhe(4-Me)][Sar][hPhe(3-Cl-4-CF3)]P[Ac5c][NMeI][NMeC]-NMe2; thioether N-10)

- pIC50 [1]: < 6.30
- pIC50 [2]: 6.06
Structure (SMILES): CCCOC[C@H]1C(=O)N(C)CC(=O)N[C@@H](CCc2ccc(C(F)(F)F)c(F)c2)C(=O)N2CCC[C@H]2C(=O)NC2(CCCC2)C(=O)N(C)[C@@H](C2CCCC2)C(=O)N(C)[C@H](C(=O)N(C)C)CSCC(=O)N(C)[C@@H](CC(C)C)C(=O)N[C@@H]([C@@H](C)CC)C(=O)N(C)[C@@H](C)C(=O)N2CC[C@H]2C(=O)N1C [Compound 2174, (3S,9S,12S,17S,20S,23S,29R,32S,38S)-20-[(2S)-butan-2-yl]-32-cyclopentyl-3-[2-[3-fluoro-4-(trifluoromethyl)phenyl]ethyl]-N,N,7,10,17,18,24,30,33-nonamethyl-23-(2-methylpropyl)-2,5,8,11,16,19,22,25,31,34,37-undecaoxo-9-(propoxymethyl)spiro[27-thia-1,4,7,10,15,18,21,24,30,33,36-undecazatricyclo[36.3.0.012,15]hentetracontane-35,1′-cyclopentane)-29-carboxamide] ({CH2CO}-[NMeL]I[NMeA][Aze][NMeS](Propyl)[Sar][hPhe(3-F,4-CF3)]P[Ac5c][NMeGly(cPent)][NMeC]-NMe2; thioether N-11)

- pIC50 [1]: < 6.30
- pIC50 [2]: 6.74
Structure (SMILES): CC[C@H](C)[C@@H]1NC(=O)[C@H](CC(C)C)N(C)C(=O)CSC[C@@H](C(=O)N(C)C)N(C)C(=O)[C@H](C2CCCC2)N(C)C(=O)C2(CCCC2)NC(=O)[C@@H]2CCCN2C(=O)[C@H](CCc2ccc(C(F)(F)F)c(Cl)c2)NC(=O)CN(C)C(=O)[C@H](CC2CCCCC2)N(C)C(=O)CN(C)C(=O)CN(C)C1=O [Compound 2175] ({CH2CO}-[NMeL]I[Sar][Sar][NMeCha][Sar][hPhe(3-Cl-4-CF3)]P[Ac5c][NMeGly(cPent)][NMeC]-NMe2; thioether N-11)

- pIC50 [1]: < 6.30
- pIC50 [2]: 6.92
Structure (SMILES): CCO[C@@H]1C[C@H]2C(=O)NC3(CCCC3)C(=O)N(C)[C@@H](C3CCCC3)C(=O)N(C)[C@H](C(=O)N(C)C)CSCC(=O)N(C)[C@@H](CC(C)C)C(=O)N[C@@H]([C@@H](C)CC)C(=O)N(C)[C@@H](C)C(=O)N3CC[C@H]3C(=O)N(C)[C@@H](CC3CCCCC3)C(=O)N(C)CC(=O)N[C@@H](CCc3cc(F)c(C(F)(F)F)c(F)c3)C(=O)N2C1 [Compound 2176, (3S,9S,12S,17S,20S,23S,29R,32S,38S,40R)-20-[(2S)-butan-2-yl]-9-(cyclohexylmethyl)-32-cyclopentyl-3-[2-[3,5-difluoro-4-(trifluoromethyl)phenyl]ethyl]-40-ethoxy-N,N,7,10,17,18,24,30,33-nonamethyl-23(2-methylpropyl)-2,5,8,11,16,19,22,25,31,34,37-undecaoxospiro[27-thia-1,4,7,10,15,18,21,24,30,33,36-undecazatricyclo[36.3.0.012,15]hentetracontane-35,1′-cyclopentane]-29-carboxamide] ({CH2CO}-[NMeL]I[NMeA][Aze][NMeCha][Sar][hPhe(3,5-F2-4-CF3)][Hyp](Et)[Ac5c][NMeGly(cPent)][NMeC]-NMe2; thioether N-11)

- pIC50 [1]: < 6.30
- pIC50 [2]: 6.60
Structure (SMILES): CC[C@H](C)[C@@H]1NC(=O)[C@H](CC(C)C)N(C)C(=O)CSC[C@@H](C(=O)N(C)C)N(C)C(=O)[C@H](C2CCCC2)N(C)C(=O)C2(CCCC2)NC(=O)[C@@H]2CCCN2C(=O)[C@H](CCc2ccc(C(F)(F)F)c(Cl)c2)NC(=O)CN(C)C(=O)[C@H](Cc2ccc(C)cc2)N(C)C(=O)[C@@H]2CCN2C(=O)[C@H](C)N(C)C1=O [Compound 2177] ({CH2CO}-[NMeL]I[NMeA][Aze][NMePhe(4-Me)][Sar][hPhe(3-Cl-4-CF3)]P[Ac5c][NMeGly(cPent)][NMeC]-NMe2; thioether N-11)

- pIC50 [1]: < 6.30
- pIC50 [2]: 6.80
Structure (SMILES): CC[C@H](C)[C@@H]1NC(=O)[C@H](CC(C)C)N(C)C(=O)CSC[C@@H](C(=O)N(C)C)N(C)C(=O)[C@H]([C@@H](C)CC)N(C)C(=O)C2(CCCC2)NC(=O)[C@@H]2CCCN2C(=O)[C@H](CCc2ccc(C(F)(F)F)c(Cl)c2)NC(=O)CN(C)C(=O)[C@H](Cc2ccc(C)cc2)N(C)C(=O)CN(C)C(=O)CN(C)C1=O [Compound 2178] ({CH2CO}-[NMeL]I[Sar][Sar][NMePhe(4-Me)][Sar][hPhe(3-Cl-4-CF3)]P[Ac5c][NMeI][NMeC]-NMe2; thioether N-11)

- pIC50 [1]: < 6.30
- pIC50 [2]: 6.27
Structure (SMILES): CC[C@H](C)[C@@H]1NC(=O)[C@H](CC(C)C)N(C)C(=O)CSC[C@@H](C(=O)N(C)C)N(C)C(=O)[C@H](C2CCCC2)N(C)C(=O)C2(CCCC2)NC(=O)[C@@H]2CCCN2C(=O)[C@H](CCc2ccc(C(F)(F)F)c(F)c2)NC(=O)CN(C)C(=O)[C@H](C2CCCC2)N(C)C(=O)[C@@H]2CCN2C(=O)[C@H](C)N(C)C1=O [Compound 2179] ({CH2CO}-[NMeL]I[NMeA][Aze][NMeGly(cPent)][Sar][hPhe(3-F,4-CF3)]P[Ac5c][NMeGly(cPent)][NMeC]-NMe2; thioether N-11)
